Data as given in patent US7851587B2, “Peptides derived from the C2 domain of epsilon PKC” (The Board of Trustees of the Leland Stanford Junior …, priority 2006, dated 2010).
“Also recorded” adds a separate entry of the source. Where two headings read alike, the source gives them in different places. Ends that are not written are not given here.

Tests used:
intact heart, ex vivo [1] = assay: Ex vivo cardiac protection, ischemia and reperfusion in Langendorff-perfused hearts (TTC staining, CPK release); design: species or system Wistar rats
PKC [2] = assay: MARCKS phosphorylation in primary skeletal muscle cells from εPKC knockout mice (Western blot); settings: primary mouse muscle cells from εPKC knock-out mice; 1 μM peptide for 15 minutes
PKC [3] = settings: primary mouse muscle cells, wild-type; 1 μM peptide for 15 or 30 minutes prior to cell lysis
εPKC [4] = assay: εPKC translocation from the soluble to the particulate fraction in CHO cells (immunoblot); type: cell-based; settings: for εPKC translocation in cells: 500 nM peptide for 15 minutes before sub-maximal 3 nM PMA, relative to control
Experimental: Upon activation, PKC translocates from the soluble to the particulate cell fraction, which translocation can be monitored by immunoblot analysis (26). It was previously determined that the effect of peptides on PKC translocation is better observed when the cells are treated with a sub-maximal concentration of PMA (22,42). Larger concentrations of PMA, a non-physiological activator, stimulate a greater degree of PKC translocation over translocation stimulated by peptide activators alone (51).
A representative activator (peptide 2) or inhibitor (peptide 7) were preincubated at 500 nM for 15 minutes with cells before sub-optimal stimulation with 3 nM PMA for 7 minutes.
PKC Translocation in Cells—εPKC translocation from the soluble to the particulate fraction in CHO cells was used to assess the relative amount of activated (membrane-bound) εPKC, an assay that has been described previously (42). Evidence of translocation is either by an increase in the amount of PKC in the particulate fraction or by a decrease in the soluble fraction. Briefly, after stimulation, cells were washed with cold PBS, scraped in homogenization buffer, passed through a (25G⅝″) syringe needle, and spun at 100,000 g for 30 min at 4° C. The pellet was then resuspended in homogenization buffer with 1% Triton X-100. Where applicable, the cells were pre-incubated with 500 nM peptide for 15 minutes prior to stimulation. PKC was stimulated with sub-maximal levels of the general PKC activator phorbol 12-myristate 13-acetate (PMA, 3 nM). The samples were then analyzed by Western blot. Antibodies against εPKC were obtained from Santa Cruz Biotechnology (Santa Cruz, Calif.) and used at 1:500 dilution.

ηPKC = settings: ηPKC-derived peptides; Ref. (1, 63); cited from earlier work
εPKC [5] = target: T1, εPKC (Mus musculus, UniProt P16054); assay: In vivo PKC translocation in hearts after intraperitoneal injection (immunoblot); design: species or system mice; settings: for translocation of εPKC in hearts in vivo: particulate fraction of mouse hearts, 15 minutes following IP injection of 20 nmol peptide, relative to control TAT peptide
T1 construct: from tissue; host or cells: mouse heart
T1 sequence (P16054 1-737): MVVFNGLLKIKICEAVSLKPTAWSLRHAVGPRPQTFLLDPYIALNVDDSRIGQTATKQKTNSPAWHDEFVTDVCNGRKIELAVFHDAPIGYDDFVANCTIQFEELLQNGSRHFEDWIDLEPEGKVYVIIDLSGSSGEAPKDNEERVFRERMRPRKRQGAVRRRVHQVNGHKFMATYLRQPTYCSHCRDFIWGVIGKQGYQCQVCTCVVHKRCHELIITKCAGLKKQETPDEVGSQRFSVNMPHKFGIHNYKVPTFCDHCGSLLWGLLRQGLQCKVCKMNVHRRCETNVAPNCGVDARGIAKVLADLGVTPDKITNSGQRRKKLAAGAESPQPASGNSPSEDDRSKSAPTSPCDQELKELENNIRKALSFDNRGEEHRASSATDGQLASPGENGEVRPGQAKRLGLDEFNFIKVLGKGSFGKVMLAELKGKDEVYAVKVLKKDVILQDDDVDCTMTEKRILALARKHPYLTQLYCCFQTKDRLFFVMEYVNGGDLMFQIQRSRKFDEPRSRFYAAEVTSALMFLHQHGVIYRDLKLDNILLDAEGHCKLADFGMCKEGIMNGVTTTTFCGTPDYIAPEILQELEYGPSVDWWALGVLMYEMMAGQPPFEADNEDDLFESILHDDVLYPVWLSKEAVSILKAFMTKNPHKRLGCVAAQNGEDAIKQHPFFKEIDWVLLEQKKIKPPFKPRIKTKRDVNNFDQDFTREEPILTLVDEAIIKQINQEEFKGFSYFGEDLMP
Experimental: (§1) In a further in vivo study, peptide activity and selectivity were examined using representative peptides injected into mice via intraperitoneal (IP) injection, and the amount of εPKC, δPKC, αPKC, and ζPKC translocation in hearts was determined. These four PKC isozymes represent each of the three major sub-families of PKC. In particular, εPKC and δPKC are members of the novel PKC family (calcium insensitive, diacylglycerol sensitive), αPKC is a classical PKC (calcium and diacylglycerol sensitive), and ζPKC is an atypical PKC (calcium and diacylglycerol insensitive).
(§2) Levels of εPKC, δPKC, αPKC, and ζPKC in the particulate fraction of mouse hearts were assayed by immunoblot 15 minutes following IP injection of 20 nmol each peptides (FIGS. 5A-5D). The accompanying graphs show quantitation based on two experiments, calculated as fold increase (+/−standard error) in the particulate fraction/total fraction, normalized to the actin loading control, and relative to the control TAT peptide. […] Since peptides 11 and 13 caused MARCKS phosphorylation in myocytes from the εPKC knockout mice (FIG. 3), it is concluded that they activated several PKC isozymes.
(§3) Isozyme Selectivity In Vivo—To determine that activator peptides causing MARCKS phosphorylation and decreasing ischemia-reperfusion damage in heart also induce εPKC translocation in vivo, we injected the respective peptides at 20 nmol in 200 μl saline into the peritoneum of 15-20 g mice, as previously reported (48). Fifteen minutes later, the mice were sacrificed and heart and brain were collected. Soluble and particulate fractions from mouse tissue were prepared as previously described (48). ε, ζ and δPKC translocation were determined by Western blot analysis using selective anti-PKC antibodies from Santa Cruz Biotechnology, Santa Cruz, Calif. and used at 1:500 dilution. Sarcomeric actin (1:1000, Sigma) was used as a loading control for all fractions.

αPKC = target: T2, αPKC (Mus musculus, UniProt P20444); assay: as above; design: species or system mice; settings: particulate fraction of mouse hearts, 15 minutes following IP injection of 20 nmol peptide; relative to control TAT peptide
T2 construct: from tissue; host or cells: mouse heart
Experimental: as §1, §2, §3

δPKC = target: T3, δPKC (Mus musculus, UniProt P28867); assay: as above; design: species or system mice; settings: particulate fraction of mouse hearts, 15 minutes following IP injection of 20 nmol peptide; relative to control TAT peptide
T3 construct: from tissue; host or cells: mouse heart
Experimental: as §1, §2, §3

intact heart, ex vivo [6] = settings: pre-treatment, Langendorff apparatus; refs (4,43); cited from earlier work
[7] = 1 μM TAT-conjugated peptide 10 minutes prior to 40 minutes global ischemia, 60 minutes reperfusion (peptide 9: 30 minutes ischemia), † and ‡ = trend towards cardioprotective (n = 5, n = 3)

T3 sequence (P28867 whole entry): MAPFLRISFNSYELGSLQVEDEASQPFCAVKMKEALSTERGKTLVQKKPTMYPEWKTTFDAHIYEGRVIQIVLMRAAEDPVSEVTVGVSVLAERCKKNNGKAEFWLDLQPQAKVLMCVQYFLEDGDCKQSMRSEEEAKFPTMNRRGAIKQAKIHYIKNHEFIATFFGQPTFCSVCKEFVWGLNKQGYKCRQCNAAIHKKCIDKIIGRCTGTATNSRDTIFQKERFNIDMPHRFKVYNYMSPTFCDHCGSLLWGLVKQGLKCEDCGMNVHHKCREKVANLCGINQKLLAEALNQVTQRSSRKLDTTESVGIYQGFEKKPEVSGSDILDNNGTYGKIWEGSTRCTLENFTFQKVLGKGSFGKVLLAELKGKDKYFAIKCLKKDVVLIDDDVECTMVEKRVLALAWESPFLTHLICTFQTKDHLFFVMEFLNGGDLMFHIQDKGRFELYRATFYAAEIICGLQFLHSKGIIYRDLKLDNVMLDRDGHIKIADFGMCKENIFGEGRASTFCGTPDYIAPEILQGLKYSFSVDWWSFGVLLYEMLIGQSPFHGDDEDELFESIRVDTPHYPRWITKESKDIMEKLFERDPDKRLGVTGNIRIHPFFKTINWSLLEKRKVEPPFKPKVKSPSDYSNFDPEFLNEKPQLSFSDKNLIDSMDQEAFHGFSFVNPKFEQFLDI
ηPKC, sequence (P24723 whole entry): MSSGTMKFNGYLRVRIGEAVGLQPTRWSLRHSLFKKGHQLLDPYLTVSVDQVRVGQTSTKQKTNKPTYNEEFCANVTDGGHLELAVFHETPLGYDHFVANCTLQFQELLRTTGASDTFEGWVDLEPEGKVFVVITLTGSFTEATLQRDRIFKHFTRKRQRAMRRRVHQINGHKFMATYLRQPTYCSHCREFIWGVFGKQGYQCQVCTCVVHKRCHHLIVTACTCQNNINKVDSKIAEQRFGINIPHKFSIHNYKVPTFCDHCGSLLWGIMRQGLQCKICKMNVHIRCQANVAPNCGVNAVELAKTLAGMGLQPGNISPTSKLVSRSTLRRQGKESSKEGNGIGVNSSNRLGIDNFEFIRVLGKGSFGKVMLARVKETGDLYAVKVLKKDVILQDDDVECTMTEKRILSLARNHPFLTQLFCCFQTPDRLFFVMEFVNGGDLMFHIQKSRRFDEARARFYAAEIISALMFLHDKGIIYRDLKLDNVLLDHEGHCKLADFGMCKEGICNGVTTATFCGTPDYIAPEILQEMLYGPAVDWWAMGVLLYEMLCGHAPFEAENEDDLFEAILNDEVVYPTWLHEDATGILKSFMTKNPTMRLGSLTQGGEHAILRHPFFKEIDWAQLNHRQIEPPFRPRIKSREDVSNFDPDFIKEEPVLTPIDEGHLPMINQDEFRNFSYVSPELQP

Substance	Cardioprotective ex vivo (intact heart, ex vivo [1])	MARCKS phosphorylation in εKO Cells (PKC [2])	εPKC translocation in cells (εPKC [4])	other results
CTATKQKT (not fully specified; also: TAT47-57 carrier linked via Cys disulfide) [Peptide 6]	cardioprotective and yes	weak activator	activator	MARCKS phosphorylation in WT Cells (PKC [3]): activator
CVYVIIDL (not fully specified (residue 1)) [Peptide 13]	not cardioprotective and no	increased MARCKS phosphorylation; also recorded: activator	activator	–
CAVGPRPQT (not fully specified (residue 1)) [Peptide 2]	–	not in KO; also recorded: no effect	activator	Cardioprotective ex vivo (intact heart, ex vivo [1]; [7]): cardioprotective and yes; increase in the amount of εPKC translocation compared to pre-treatment with the TAT control peptide (εPKC [4]; 500 nM peptide 15 minutes, then 3 nM PMA 7 minutes, n=5, p<0.05): approximately 30%
HETPLGYD (peptide derived from eta PKC)	–	–	–	Activity (known PKC-modulating activity) (ηPKC): activator
CPDYHDAGI (not fully specified; also: TAT47-57 conjugated) [scrambled ψεRACK, reference compound]	not cardioprotective and no	–	–	MARCKS phosphorylation in WT Cells (PKC [3]): No change
CEFVTDV [Peptide 8]	not cardioprotective and no	not conclusive	activator	–
CHFEDWID (not fully specified; also: TAT47-57 carrier linked via Cys disulfide) [Peptide 11]	not cardioprotective and no	increased MARCKS phosphorylation; also recorded: activator	–	translocation of εPKC in hearts in vivo (εPKC [5]): substantial translocation; translocation of αPKC in hearts in vivo (αPKC): substantial translocation; translocation of δPKC in hearts in vivo (δPKC): substantial translocation
CFLLDPY [Peptide 3]	trend towards cardioprotection and yes‡	not in KO; also recorded: no effect	activator	–
CFNGLLKIKI (not fully specified (residue 1)) [Peptide 1]	–	not in KO; also recorded: no effect	activator	Cardioprotective ex vivo (intact heart, ex vivo [1]; [7]): trend towards cardioprotection and yes†; translocation of εPKC in hearts in vivo (εPKC [5]): caused translocation of εPKC
CPYIALNVD (not fully specified (residue 1)) [Peptide 4]	–	–	decrease in the amount of εPKC in the pellet fraction; also recorded: inhibitor	–
CIELAVF [Peptide 10]	no	not conclusive	activator	MARCKS phosphorylation in WT Cells (PKC [3]): activator
EAVGLQPT (peptide derived from eta PKC)	–	–	–	Activity (known PKC-modulating activity) (ηPKC): inhibitor
CSRIGQ [Peptide 5]	cardioprotective and yes	not in KO; also recorded: no effect	activator	translocation of εPKC in hearts in vivo (εPKC [5]): caused translocation of εPKC
CHDAPIGYD [ψεRACK, reference compound]	–	not in KO; also recorded: no effect	activator	damage (infarction) of hearts subjected to ischemia and reperfusion ex vivo (intact heart, ex vivo [6]): reduced damage; Cardioprotective ex vivo (intact heart, ex vivo [1]; [7]): cardioprotective and yes; translocation of εPKC in hearts in vivo (εPKC [5]): caused translocation of εPKC
CLSETKPAV (not fully specified; also: TAT47-57 conjugated) [scrambled εV1-2, reference compound]	not cardioprotective and no	no effect	stimulated εPKC translocation; also recorded: activator	PKC translocation, in vivo (εPKC [5]; mouse hearts, 15 minutes after IP injection of 20 nmol peptide, the cell words say which of ε, δ, α, ζPKC translocate): no; translocation of εPKC in hearts in vivo (εPKC [5]): did not cause an increase; translocation of δPKC in hearts in vivo (δPKC): did not cause an increase
CLEPEGK [Peptide 12]	–	–	decrease in the amount of εPKC in the pellet fraction; also recorded: inhibitor	–
CYGRKKRRQRRR (TAT carrier peptide with N-terminal cysteine) [reference compound]	–	no effect	no effect	Cardioprotective ex vivo (intact heart, ex vivo [1]; [7]): no; Cardioprotective ex vivo (intact heart, ex vivo [1]; 1 μM TAT-conjugated peptide 10 minutes prior to 40 minutes global ischemia, 60 minutes reperfusion (peptide 9: 30 minutes ischemia), † and ‡ = trend towards cardioprotective (n = 5, n = 3), listed as TAT): not cardioprotective; MARCKS phosphorylation in WT Cells (PKC [3]): no effect
CPAWHD [Peptide 7]	no	–	decrease in the amount of εPKC in the pellet fraction; also recorded: inhibitor	decrease in the amount of translocated εPKC compared to pre-treatment with the TAT control peptide (εPKC [4]; 500 nM peptide 15 minutes, then 3 nM PMA 7 minutes, n=3, p<0.01): approximately 50%
CEAVSLKPT [εV1-2, reference compound]	–	no effect	decrease in the amount of εPKC in the pellet fraction; also recorded: inhibitor	Cardioprotective ex vivo (intact heart, ex vivo [1]; [7]): no
CNGRKI (not fully specified; also: TAT47-57 carrier linked via Cys disulfide) [Peptide 9]	cardioprotective and yes	not in KO; also recorded: no effect	activator	–
